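Growth conditions: 96-well plates. Treatment: test compound, 48 hours, 5 concentrations. Analysis: linear interpolation between bracketing concentrations; unreached endpoints set to highest concentration. TGI: concentration producing complete growth inhibition.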
Experiments:
Test in all cases: growth of human tumour cells (NCI), 48 h
OVCAR-3 ovarian = test system: OVCAR-3 ovarian
NCI/ADR-RES ovarian = test system: NCI/ADR-RES ovarian
MDA-MB-231 breast = test system: MDA-MB-231 breast
CCRF-CEM leukemia = test system: CCRF-CEM leukemia
U251 CNS = test system: U251 CNS
SK-OV-3 ovarian = test system: SK-OV-3 ovarian
KM12 colon = test system: KM12 colon
LOX IMVI melanoma = test system: LOX IMVI melanoma
T-47D breast = test system: T-47D breast
NCI-H23 lung = test system: NCI-H23 lung
CAKI-1 renal = test system: CAKI-1 renal
SK-MEL-2 melanoma = test system: SK-MEL-2 melanoma
COLO 205 colon = test system: COLO 205 colon
RXF 393 renal = test system: RXF 393 renal
SNB-75 CNS = test system: SNB-75 CNS
A498 renal = test system: A498 renal
HS 578T breast = test system: HS 578T breast
A549 NSCLC = test system: A549 NSCLC
786-0 renal = test system: 786-0 renal
SW-620 colon = test system: SW-620 colon
HOP-62 NSCLC = test system: HOP-62 NSCLC
SN12C renal = test system: SN12C renal
HCT-116 colon = test system: HCT-116 colon
UO-31 renal = test system: UO-31 renal
SK-MEL-5 melanoma = test system: SK-MEL-5 melanoma
NCI-H460 lung = test system: NCI-H460 lung
HCC-2998 colon = test system: HCC-2998 colon
MDA-N = test system: MDA-N
HCT-15 colon = test system: HCT-15 colon
MDA-MB-435 = test system: MDA-MB-435
SF-295 CNS = test system: SF-295 CNS
NCI-H522 lung = test system: NCI-H522 lung
SNB-19 CNS = test system: SNB-19 CNS
TK-10 renal = test system: TK-10 renal
HT29 colon = test system: HT29 colon
IGROV1 ovarian = test system: IGROV1 ovarian
OVCAR-8 ovarian = test system: OVCAR-8 ovarian
MCF7 breast = test system: MCF7 breast
SF-539 CNS = test system: SF-539 CNS
DU-145 prostate = test system: DU-145 prostate
UACC-257 melanoma = test system: UACC-257 melanoma
OVCAR-5 ovarian = test system: OVCAR-5 ovarian
K-562 leukemia = test system: K-562 leukemia
RPMI-8226 leukemia = test system: RPMI-8226 leukemia
NCI-H226 lung = test system: NCI-H226 lung
UACC-62 melanoma = test system: UACC-62 melanoma
SR leukemia = test system: SR leukemia
MOLT-4 leukemia = test system: MOLT-4 leukemia
HOP-92 NSCLC = test system: HOP-92 NSCLC
PC-3 prostate = test system: PC-3 prostate
SK-MEL-28 melanoma = test system: SK-MEL-28 melanoma
MALME-3M melanoma = test system: MALME-3M melanoma
M14 melanoma = test system: M14 melanoma
BT-549 breast = test system: BT-549 breast
SF-268 CNS = test system: SF-268 CNS
ACHN renal = test system: ACHN renal
OVCAR-4 ovarian = test system: OVCAR-4 ovarian
EKVX NSCLC = test system: EKVX NSCLC

Cc1nc2ccccc2cc1C[N+]12CN3CN(CN(C3)C1)C2
TGI (OVCAR-3 ovarian): 86.2 µM
TGI (NCI/ADR-RES ovarian): 56.3 µM
TGI (MDA-MB-231 breast): 43.1 µM
TGI (CCRF-CEM leukemia): 23.7 µM
TGI (U251 CNS): 28.2 µM
TGI (SK-OV-3 ovarian): 98.9 µM
TGI (KM12 colon): 45.8 µM
TGI (LOX IMVI melanoma): 32.8 µM
TGI (T-47D breast): > 100 µM
TGI (NCI-H23 lung): 33.9 µM
TGI (CAKI-1 renal): 59.8 µM
TGI (SK-MEL-2 melanoma): 39.8 µM
TGI (COLO 205 colon): 28.8 µM
TGI (RXF 393 renal): 40.4 µM
TGI (SNB-75 CNS): 35.6 µM
TGI (A498 renal): 47.8 µM
TGI (HS 578T breast): > 100 µM
TGI (A549 NSCLC): > 100 µM
TGI (786-0 renal): 37.8 µM
TGI (SW-620 colon): > 100 µM
TGI (HOP-62 NSCLC): 69.9 µM
TGI (SN12C renal): 48.1 µM
TGI (HCT-116 colon): 33.2 µM
TGI (UO-31 renal): 57.4 µM
TGI (SK-MEL-5 melanoma): 32.8 µM
TGI (NCI-H460 lung): 45.1 µM
TGI (HCC-2998 colon): 30.8 µM
TGI (MDA-N): 65.6 µM
TGI (HCT-15 colon): 47 µM
TGI (MDA-MB-435): 49.3 µM
TGI (SF-295 CNS): 54.6 µM
TGI (NCI-H522 lung): 38.2 µM
TGI (SNB-19 CNS): 56.5 µM
TGI (TK-10 renal): 63.4 µM
TGI (HT29 colon): 60.8 µM
TGI (IGROV1 ovarian): > 100 µM
TGI (OVCAR-8 ovarian): > 100 µM
TGI (MCF7 breast): 27.7 µM
TGI (SF-539 CNS): 64.5 µM
TGI (DU-145 prostate): 82.1 µM
TGI (UACC-257 melanoma): 35.5 µM
TGI (OVCAR-5 ovarian): 57.8 µM
TGI (K-562 leukemia): > 100 µM
TGI (RPMI-8226 leukemia): > 100 µM
TGI (NCI-H226 lung): 52.8 µM
TGI (UACC-62 melanoma): 33.1 µM
TGI (SR leukemia): > 100 µM
TGI (MOLT-4 leukemia): > 100 µM
TGI (HOP-92 NSCLC): > 100 µM
TGI (PC-3 prostate): 34.3 µM
TGI (SK-MEL-28 melanoma): 45.1 µM
TGI (MALME-3M melanoma): 32 µM
TGI (M14 melanoma): 39.1 µM
TGI (BT-549 breast): 40 µM
TGI (SF-268 CNS): 51 µM
TGI (ACHN renal): 38.5 µM
TGI (OVCAR-4 ovarian): 64.9 µM
TGI (EKVX NSCLC): 50 µM

Reference: PubChem BioAssay (NCI)
